Values quoted from earlier work in US20050288375A1, “Method and composition for treating neurodegenerative disorders” (Myriad Genetics, Incorporated, priority 2003, published 2005).

Tests used:
[1] = rofecoxib at 25 mg daily; naproxen in the same trial
[2] = system: brain cells after cerebral ischemia; settings: rats
[3] = not given; remark: listed apart in the source

SMILES | efficacy for treating AD [1] | side effects at high doses | also measured
COc1ccc2cc([C@H](C)C(=O)O)ccc2c1 [Naproxen] | failed to show efficacy | – | –
c1ccc(C2(N3CCCCC3)CCCCC2)cc1 [PCP, Phencyclidine] | – | – | destruction of brain cells after cerebral ischemia [2]: prevent the destruction of brain cells
COc1ccc2c(c1)[C@@]13CCCC[C@H]1[C@@H](C2)N(C)CC3 [dextromethorphan, (+)-3-methoxy-N-methylmorphinan] | – | drowsiness, nausea, and decreased coordination | –
CN1CC[C@]23CCCC[C@H]2[C@H]1Cc1ccc(O)cc13 [dextrorphan, (+)-3-hydroxy-N-methylmorphinan] | – | drowsiness, nausea, and decreased coordination | –
CC12CC3CC(C)(C1)CC(N)(C3)C2 [memantine, 1-amino-3,5-dimethyl adamantane] | – | – | efficacy in treating mild-to-moderate AD [3]: showed efficacy
CS(=O)(=O)c1ccc(C2=C(c3ccccc3)C(=O)OC2)cc1 [rofecoxib] | failed to show efficacy | – | –
